Test results reported in patent US11672788B2, “Histone deacetylase inhibitors for immunomodulation in tumor microenvironment” (GREAT NOVEL THERAPEUTICS BIOTECH & MEDICALS CORPORATION, priority 2020, dated 2023).
“Also recorded” adds a separate entry of the source.

Key:
[1] = test system: histone H3 acetylation (AcH3) in MDA-MB-231 cells; experiment: Western blot of histone H3 acetylation; format: cell-based, human; settings: MDA-MB-231, 1.0 μM
Summary of the method: (§1)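 MDA-MB-231 and SW48 cells in L-15 with 10% FCS were treated at indicated doses for 24 h or over a time course. RIPA lysates were immunoblotted for acetylated histone H3 with β-actin as loading control, using ECL detection.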

[2] = test system: histone H3 acetylation (AcH3) in SW48 cells; experiment: Western blot of histone H3 acetylation; format: cell-based, human; settings: SW48, 1.0 μM, 2-72 h
Summary of the method: as §1

M10 cells = experiment: Cell proliferation and morphology by phase-contrast light microscopy; format: cell-based, human; settings: M10, 12.5 μM
Source text: (§2) (FIG. 3A) MDA-MB-231 cells, (FIG. 3B) SW48 cells, (FIG. 3C) M10 cells.

MDA-MB-231 cells = experiment: as above; format: cell-based, human; settings: MDA-MB-231, 12.5 μM, 72 h
Source text: as §2

SW48 cells = experiment: as above; format: cell-based, human; settings: SW48, 3.125 μM, 72 h
Source text: as §2

HDAC2 = HDAC2 (Homo sapiens (Human), UniProt Q92769); experiment: HDACs 1-11 enzymatic inhibition by BPS Bioscience
Sequence of HDAC2 (Q92769 whole entry): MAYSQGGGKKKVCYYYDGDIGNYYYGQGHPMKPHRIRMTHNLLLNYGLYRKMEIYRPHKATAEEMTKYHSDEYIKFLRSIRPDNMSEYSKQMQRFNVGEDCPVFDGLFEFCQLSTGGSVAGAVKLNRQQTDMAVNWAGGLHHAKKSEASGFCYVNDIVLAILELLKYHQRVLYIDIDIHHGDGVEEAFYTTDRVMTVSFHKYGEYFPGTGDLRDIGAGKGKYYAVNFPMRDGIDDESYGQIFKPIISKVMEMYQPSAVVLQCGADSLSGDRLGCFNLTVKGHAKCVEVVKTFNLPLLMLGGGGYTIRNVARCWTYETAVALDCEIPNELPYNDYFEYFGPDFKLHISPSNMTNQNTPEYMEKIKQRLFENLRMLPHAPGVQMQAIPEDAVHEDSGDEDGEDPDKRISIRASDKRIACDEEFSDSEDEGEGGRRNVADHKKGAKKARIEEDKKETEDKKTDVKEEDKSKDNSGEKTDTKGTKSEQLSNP
Procedure: (§3) HDAC assay was performed according to standard Protocols (Fluorgenic HDACs 1-11 assay kit, BPS Bioscience™). […] After 0.5 h, assay developer was added to the samples and the absorbance was read at fluorogenic wavelength. The relative inhibition to HDACs 1, 2, 3, 4, 5, 6, 7, 8, 9, and 11 activities was determined in each sample. […] All of the compounds were dissolved in DMSO. The serial dilution of the compounds was first performed in 100% DMSO with the highest concentration at 1 mM. Each intermediate compound dilution (in 100% DMSO) would then get directly diluted 10× fold into assay buffer for an intermediate dilution of 10% DMSO in HDAC assay buffer and 5 μl of the dilution was added to a 50 μl reaction so that the final concentration of DMSO is 1% in all of the reactions. […] Fluorescence intensity was measured at an excitation of 360 nm and an emission of 460 nm using a Tecan Infinite M1000 microplate reader. […] The fluorescent intensity data were analyzed using the computer software, Graphpad Prism. […] The percent activity in the presence of each compound was calculated according to the following equation: % activity=(F−Fb)/(Ft−Fb), where F=the fluorescent intensity in the presence of the compound. […] The IC50 value was determined by the concentration causing a half-maximal percent activity.

HDAC3/NCOR2 = HDAC3/NCOR2 (Homo sapiens (Human), UniProt O15379); experiment: HDACs 1-11 enzymatic inhibition by BPS Bioscience
Sequence of HDAC3/NCOR2 (O15379 whole entry): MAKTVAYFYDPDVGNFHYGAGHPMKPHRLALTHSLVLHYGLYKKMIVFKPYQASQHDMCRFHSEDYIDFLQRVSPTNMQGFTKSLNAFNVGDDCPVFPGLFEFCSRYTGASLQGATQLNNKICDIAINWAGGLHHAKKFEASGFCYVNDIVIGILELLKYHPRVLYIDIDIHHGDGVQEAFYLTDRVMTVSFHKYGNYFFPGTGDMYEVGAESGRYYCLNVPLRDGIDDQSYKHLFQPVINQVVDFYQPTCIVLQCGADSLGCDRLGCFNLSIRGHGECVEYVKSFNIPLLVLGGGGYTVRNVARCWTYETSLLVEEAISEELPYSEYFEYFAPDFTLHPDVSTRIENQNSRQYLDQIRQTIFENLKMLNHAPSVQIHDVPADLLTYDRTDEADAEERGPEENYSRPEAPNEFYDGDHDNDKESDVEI
Sequence of HDAC3/NCOR2 (Q9Y618 395-489 partner): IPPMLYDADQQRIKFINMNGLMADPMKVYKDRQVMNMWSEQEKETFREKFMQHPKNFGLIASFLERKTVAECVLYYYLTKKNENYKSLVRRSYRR
Procedure: as §3

HDAC5 = HDAC5 (Homo sapiens (Human), UniProt Q9UQL6); experiment: HDACs 1-11 enzymatic inhibition by BPS Bioscience
Sequence of HDAC5 (Q9UQL6 whole entry): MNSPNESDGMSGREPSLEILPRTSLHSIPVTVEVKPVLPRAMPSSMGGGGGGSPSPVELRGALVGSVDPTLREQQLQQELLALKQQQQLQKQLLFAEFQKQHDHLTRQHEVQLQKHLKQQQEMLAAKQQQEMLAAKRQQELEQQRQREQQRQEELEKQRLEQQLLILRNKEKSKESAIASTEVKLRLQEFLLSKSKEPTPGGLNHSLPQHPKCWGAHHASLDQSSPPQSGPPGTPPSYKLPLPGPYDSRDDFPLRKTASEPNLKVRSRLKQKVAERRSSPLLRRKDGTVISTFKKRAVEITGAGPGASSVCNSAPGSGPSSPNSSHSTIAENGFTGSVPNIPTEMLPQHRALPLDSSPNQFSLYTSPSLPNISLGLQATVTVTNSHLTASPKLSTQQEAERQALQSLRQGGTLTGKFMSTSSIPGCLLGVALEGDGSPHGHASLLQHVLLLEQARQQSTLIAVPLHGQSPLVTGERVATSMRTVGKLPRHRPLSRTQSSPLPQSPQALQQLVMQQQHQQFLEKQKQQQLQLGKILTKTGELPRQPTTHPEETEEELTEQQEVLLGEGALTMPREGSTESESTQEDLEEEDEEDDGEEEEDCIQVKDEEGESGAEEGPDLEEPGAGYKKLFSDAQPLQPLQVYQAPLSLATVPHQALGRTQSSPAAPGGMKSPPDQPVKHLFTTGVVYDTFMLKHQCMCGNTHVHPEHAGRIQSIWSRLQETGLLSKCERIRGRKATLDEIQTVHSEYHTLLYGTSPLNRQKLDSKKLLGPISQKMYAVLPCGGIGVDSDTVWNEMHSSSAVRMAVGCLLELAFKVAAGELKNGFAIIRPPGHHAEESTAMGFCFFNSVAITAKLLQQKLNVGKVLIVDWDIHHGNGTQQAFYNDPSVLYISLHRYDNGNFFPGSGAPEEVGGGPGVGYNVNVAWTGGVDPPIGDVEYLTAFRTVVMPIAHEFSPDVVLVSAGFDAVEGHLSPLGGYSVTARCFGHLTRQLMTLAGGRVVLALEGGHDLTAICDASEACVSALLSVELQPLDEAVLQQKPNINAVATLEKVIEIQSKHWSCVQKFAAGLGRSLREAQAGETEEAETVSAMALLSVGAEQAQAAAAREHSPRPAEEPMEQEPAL
Procedure: (§4) HDAC assay was performed according to standard Protocols (Fluorgenic HDACs 1-11 assay kit, BPS Bioscience™). […] After 0.5 h, assay developer was added to the samples and the absorbance was read at fluorogenic wavelength. The relative inhibition to HDACs 1, 2, 3, 4, 5, 6, 7, 8, 9, and 11 activities was determined in each sample. […] All of the compounds were dissolved in DMSO. The serial dilution of the compounds was first performed in 100% DMSO with the highest concentration at 1 mM. Each intermediate compound dilution (in 100% DMSO) would then get directly diluted 10× fold into assay buffer for an intermediate dilution of 10% DMSO in HDAC assay buffer and 5 μl of the dilution was added to a 50 μl reaction so that the final concentration of DMSO is 1% in all of the reactions. The enzymatic reactions for the HDAC enzymes were conducted in duplicate at 37° C. for 30 minutes in a 50 μl mixture containing HDAC assay buffer, 5 μg BSA, an HDAC substrate, a HDAC enzyme and a test compound. After enzymatic reactions, 50 μl of 2×HDAC Developer was added to each well for the HDAC enzymes and the plate was incubated at room temperature for an additional 15 minutes. Fluorescence intensity was measured at an excitation of 360 nm and an emission of 460 nm using a Tecan Infinite M1000 microplate reader. HDAC activity assays were performed in duplicate at each concentration. The fluorescent intensity data were analyzed using the computer software, Graphpad Prism. In the absence of the compound, the fluorescent intensity (Ft) in each data set was defined as 100% activity. In the absence of HDAC, the fluorescent intensity (Fb) in each data set was defined as 0% activity. The percent activity in the presence of each compound was calculated according to the following equation: % activity=(F−Fb)/(Ft−Fb), where F=the fluorescent intensity in the presence of the compound. […] The IC50 value was determined by the concentration causing a half-maximal percent activity.

HDAC6 = HDAC6 (Homo sapiens (Human), UniProt Q9UBN7); experiment: HDACs 1-11 enzymatic inhibition by BPS Bioscience
Sequence of HDAC6 (Q9UBN7 whole entry): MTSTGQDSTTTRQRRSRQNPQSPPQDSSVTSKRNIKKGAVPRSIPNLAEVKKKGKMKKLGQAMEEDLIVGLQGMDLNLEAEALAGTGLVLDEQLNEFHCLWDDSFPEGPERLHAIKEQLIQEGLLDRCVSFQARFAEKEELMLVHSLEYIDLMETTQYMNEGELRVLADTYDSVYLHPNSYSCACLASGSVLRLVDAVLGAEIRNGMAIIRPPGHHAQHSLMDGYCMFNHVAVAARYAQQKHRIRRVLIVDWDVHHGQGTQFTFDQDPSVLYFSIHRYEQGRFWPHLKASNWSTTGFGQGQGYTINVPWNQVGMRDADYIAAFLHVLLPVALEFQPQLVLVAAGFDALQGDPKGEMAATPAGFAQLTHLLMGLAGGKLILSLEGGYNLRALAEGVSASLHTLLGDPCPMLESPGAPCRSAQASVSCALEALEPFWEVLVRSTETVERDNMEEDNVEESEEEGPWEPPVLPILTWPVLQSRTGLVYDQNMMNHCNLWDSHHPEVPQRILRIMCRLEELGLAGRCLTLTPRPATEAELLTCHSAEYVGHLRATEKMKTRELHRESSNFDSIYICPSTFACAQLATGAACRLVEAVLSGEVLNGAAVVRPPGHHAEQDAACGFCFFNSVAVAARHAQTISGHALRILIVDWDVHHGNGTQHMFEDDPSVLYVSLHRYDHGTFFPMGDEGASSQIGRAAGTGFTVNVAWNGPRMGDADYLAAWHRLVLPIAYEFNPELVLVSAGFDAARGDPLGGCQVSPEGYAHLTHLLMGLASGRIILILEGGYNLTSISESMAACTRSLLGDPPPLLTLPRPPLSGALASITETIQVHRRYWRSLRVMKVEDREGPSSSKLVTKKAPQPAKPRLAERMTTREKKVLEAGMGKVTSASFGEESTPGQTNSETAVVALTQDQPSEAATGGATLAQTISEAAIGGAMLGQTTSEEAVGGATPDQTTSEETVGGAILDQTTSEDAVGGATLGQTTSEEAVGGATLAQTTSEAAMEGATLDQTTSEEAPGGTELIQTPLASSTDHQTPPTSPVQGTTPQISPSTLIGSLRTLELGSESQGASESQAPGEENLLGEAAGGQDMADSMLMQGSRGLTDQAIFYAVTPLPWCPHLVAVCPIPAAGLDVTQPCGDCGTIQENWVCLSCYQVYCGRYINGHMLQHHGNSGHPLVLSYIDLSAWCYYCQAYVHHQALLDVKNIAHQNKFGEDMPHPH
Procedure: as §4

HDAC8 = HDAC8 (Homo sapiens (Human), UniProt Q9BY41); experiment: HDACs 1-11 enzymatic inhibition by BPS Bioscience
Sequence of HDAC8 (Q9BY41 whole entry): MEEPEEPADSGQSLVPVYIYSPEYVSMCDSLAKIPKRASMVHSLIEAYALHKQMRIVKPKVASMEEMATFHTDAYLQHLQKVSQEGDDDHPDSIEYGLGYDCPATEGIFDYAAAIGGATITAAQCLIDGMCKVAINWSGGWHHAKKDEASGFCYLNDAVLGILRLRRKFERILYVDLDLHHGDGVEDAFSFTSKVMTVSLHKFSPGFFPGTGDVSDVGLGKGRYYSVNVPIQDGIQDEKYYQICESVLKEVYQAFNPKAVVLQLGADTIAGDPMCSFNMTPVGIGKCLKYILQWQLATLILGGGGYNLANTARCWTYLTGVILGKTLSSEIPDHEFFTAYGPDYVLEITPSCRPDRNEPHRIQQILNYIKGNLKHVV
Procedure: as §4

For `Cc1ccc(/C=C/CC(=O)Nc2ccc(C(=O)Nc3ccc(F)cc3N)nc2)cn1` [GNTbm-02, 5-((E)-4-(6-methylpyridin-3-yl)but-3-enamido)-N-(2-amino-4-fluorophenyl)pyridine-2-carboxamide], the “Histone H3 acetylation, time course” value ([1]; 2-72 h) was “potently induced histone H3 acetylation in MDA-MB-231 cell after 6 h treatment”, the “Level of histone H3 acetylation” value ([1]; 24 h) was “significantly increased the level of histone H3 acetylation” and the “Histone H3 acetylation, time course” value [2] was “potently induced histone H3 acetylation level in SW48 cells after 6 h treatment”. The “Inhibition of cell proliferation” value (M10 cells) was “significantly inhibited cell proliferation”, the “Inhibition of cell proliferation” value (MDA-MB-231 cells) was “significantly inhibiting cell proliferation” and the “Inhibition of cell proliferation” value (SW48 cells) was “inhibitory effect was more obvious for SW48 cells”. For the same compound, the IC50 (HDAC2) was 910 nM, the IC50 (HDAC3/NCOR2) was 730 nM and the IC50 (HDAC5) was > 10 µM. For the same compound, the “HDAC5 Inhibition at 10 μM” value (HDAC5; 10 μM) was “not inhibited; also recorded: No Inhibition at 10 μM”, the IC50 (HDAC6) was > 10 µM and the “HDAC6 Inhibition at 10 μM” value (HDAC6; 10 μM) was “not inhibited; also recorded: No Inhibition at 10 μM”. For the same compound, the IC50 (HDAC8) was > 10 µM and the “HDAC8 Inhibition at 10 μM” value (HDAC8; 10 μM) was “not inhibited; also recorded: No Inhibition at 10 μM”.
